compound: C1CC(C2=C(C1)C3=C(N2)C=CC(=C3)Cl)C(=O)N [Selisistat] + CC1(C)CCC(c2ccc(Cl)cc2)=C(CN2CCN(c3ccc(C(=O)NS(=O)(=O)c4ccc(N[C@H](CCN5CCOCC5)CSc5ccccc5)c(S(=O)(=O)C(F)(F)F)c4)cc3)CC2)C1 [Navitoclax] (partner 0.5 µM); assay: relative viability (nuclei count vs DMSO), 5 days (fraction); higher = more cells survive; details: first compound 40 µM
Outline: (§1)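 Nuclei were stained with Hoechst during a one-step fixation (final 0.05% Triton X-100, 1% formaldehyde, 1 ug/ml Hoechst) carried out 5 days after dosing, then counted on 4× images. The cells, lung cancer lines in 1536-well plates, had been dosed by pin tool the day after seeding with one drug alone or a fixed anchor-drug dose plus five library-drug doses (not always all listed) in √10 steps. Relative viability is the nuclei count in treated wells divided by that in vehicle wells, and each value is the median of duplicate plates.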

Cell Line | relative viability
HCC-366 | 1.08
NCI-H1666 | 0.916
NCI-H596 | 0.895
LK-2 | 1.04
NCI-H2087 | 0.779
SK-MES-1 | 1.26
H3255 | 0.511
IA-LM | 0.835
HCC-44 | 1.02
A549 | 1.28
NCI-H1299 | 1.04
NCI-H1792 | 0.594

compound: c1ccc2c(CCNc3ccc(Nc4ccncc4)cc3)c[nH]c2c1 [Serdemetan] + Nc1nc2[nH]cc(CCc3ccc(C(=O)N[C@@H](CCC(=O)O)C(=O)O)cc3)c2c(=O)[nH]1 [Pemetrexed] (partner 0.2 µM); assay: as above; details: first compound 0.04 µM
Outline: as §1

Cell Line | relative viability
NCI-H522 | 0.971
NCI-H1650 | 0.374
NCI-H1993 | 0.577
SW 1573 | 0.869
NCI-H838 | 0.232
LCLC-103H | 0.447
NCI-H520 | 0.712
NCI-H2126 | 0.671
EMC-BAC-2 | 0.457
NCI-H2085 | 0.91
HCC-366 | 0.177
NCI-H1666 | 0.795
NCI-H596 | 0.45
LK-2 | 0.261
NCI-H2087 | 0.704
NCI-H2342 | 0.789
SK-MES-1 | 0.938
H3255 | 0.594
HCC-44 | 0.62
SW 900 | 0.461
NCI-H661 | 0.968
NCI-H1792 | 0.74
NCI-H1563 | 0.827
NCI-H358 | 0.173
NCI-H650 | 0.895

same assay, conditions: first compound 0.1265 µM

Cell Line | relative viability
NCI-H522 | 0.857
NCI-H1650 | 0.328
NCI-H1993 | 0.581
SW 1573 | 0.851
NCI-H838 | 0.263
LCLC-103H | 0.49
NCI-H520 | 0.68
NCI-H2126 | 0.707
EMC-BAC-2 | 0.446
NCI-H2085 | 0.818
HCC-366 | 0.135
NCI-H1666 | 0.87
NCI-H596 | 0.486
LK-2 | 0.206
NCI-H2087 | 0.611
NCI-H2342 | 0.752
SK-MES-1 | 0.89
H3255 | 0.462
HCC-44 | 0.621
SW 900 | 0.51
NCI-H1648 | 0.714
NCI-H661 | 0.902
NCI-H1792 | 0.88
NCI-H1563 | 0.641
NCI-H358 | 0.155
NCI-H650 | 0.903

same assay, conditions: first compound 0.4 µM

Cell Line | relative viability
NCI-H522 | 1.04
NCI-H1650 | 0.371
NCI-H1993 | 0.591
SW 1573 | 0.887
NCI-H838 | 0.249
LCLC-103H | 0.481
NCI-H520 | 0.753
NCI-H2126 | 0.579
EMC-BAC-2 | 0.437
NCI-H2085 | 0.773
HCC-366 | 0.15
NCI-H1666 | 0.786
NCI-H596 | 0.515
LK-2 | 0.225
NCI-H2087 | 0.643
NCI-H2342 | 0.835
SK-MES-1 | 0.824
H3255 | 0.541
HCC-44 | 0.577
SW 900 | 0.485
NCI-H1648 | 0.624
NCI-H661 | 0.877
NCI-H1792 | 0.761
NCI-H1563 | 0.627
NCI-H358 | 0.18
NCI-H650 | 0.992

same assay, conditions: first compound 1.265 µM

Cell Line | relative viability
NCI-H522 | 0.933
NCI-H1650 | 0.343
NCI-H1993 | 0.589
SW 1573 | 0.689
NCI-H838 | 0.209
LCLC-103H | 0.386
NCI-H520 | 0.674
NCI-H2126 | 0.601
EMC-BAC-2 | 0.346
NCI-H2085 | 0.798
HCC-366 | 0.0885
NCI-H596 | 0.463
LK-2 | 0.265
NCI-H2087 | 0.404
NCI-H2342 | 0.516
SK-MES-1 | 0.772
H3255 | 0.539
HCC-44 | 0.574
SW 900 | 0.324
NCI-H1648 | 0.554
NCI-H661 | 0.786
NCI-H1792 | 0.38
NCI-H1563 | 0.393
NCI-H358 | 0.148
NCI-H650 | 0.812

same assay, conditions: first compound 4 µM

Cell Line | relative viability
NCI-H522 | 0.98
NCI-H1650 | 0.264
NCI-H1993 | 0.546
SW 1573 | 0.376
NCI-H838 | 0.235
LCLC-103H | 0.454
NCI-H520 | 0.542
NCI-H2126 | 0.78
EMC-BAC-2 | 0.4
NCI-H2085 | 0.642
HCC-366 | 0.055
NCI-H1666 | 0.675
NCI-H596 | 0.492
LK-2 | 0.241
NCI-H2087 | 0.28
NCI-H2342 | 0.641
SK-MES-1 | 0.841
H3255 | 0.572
HCC-44 | 0.644
SW 900 | 0.41
NCI-H1648 | 0.476
NCI-H661 | 0.806
NCI-H1792 | 0.404
NCI-H1563 | 0.602
NCI-H358 | 0.163
NCI-H650 | 0.87

compound: c1ccc2c(CCNc3ccc(Nc4ccncc4)cc3)c[nH]c2c1 [Serdemetan] + CC1(C)CCC(c2ccc(Cl)cc2)=C(CN2CCN(c3ccc(C(=O)NS(=O)(=O)c4ccc(N[C@H](CCN5CCOCC5)CSc5ccccc5)c(S(=O)(=O)C(F)(F)F)c4)cc3)CC2)C1 [Navitoclax] (partner 0.5 µM); assay: as above; details: first compound 0.04 µM
Outline: as §1

Cell Line | relative viability
NCI-H727 | 0.511
NCI-H1650 | 1.02
EBC-1 | 0.553
NCI-H1703 | 1.05
NCI-H1993 | 0.952
SW 1573 | 0.898
NCI-H838 | 1.11
NCI-H520 | 1
NCI-H2126 | 0.841
EMC-BAC-2 | 1.14
NCI-H2085 | 1.16
Calu-6 | 0.973
HCC-366 | 1.03
NCI-H1666 | 0.913
NCI-H596 | 0.967
LK-2 | 0.918
NCI-H2087 | 1.05
SK-MES-1 | 1.21
H3255 | 0.437
IA-LM | 0.822
HCC-44 | 1.13
A549 | 1.2
NCI-H1299 | 1.02
NCI-H1792 | 0.655

same assay, conditions: first compound 0.1265 µM

Cell Line | relative viability
NCI-H727 | 0.354
NCI-H1650 | 1.19
EBC-1 | 0.47
NCI-H1703 | 1.24
NCI-H1993 | 0.92
SW 1573 | 0.876
NCI-H838 | 1.14
NCI-H520 | 1.09
NCI-H2126 | 0.869
EMC-BAC-2 | 1.14
NCI-H2085 | 1.01
Calu-6 | 0.869
HCC-366 | 0.981
NCI-H1666 | 0.941
NCI-H596 | 0.922
LK-2 | 0.889
NCI-H2087 | 1
SK-MES-1 | 1.24
H3255 | 0.538
IA-LM | 0.648
HCC-44 | 1.04
A549 | 1.15
NCI-H1299 | 1.03
NCI-H1792 | 0.587

same assay, conditions: first compound 0.4 µM

Cell Line | relative viability
NCI-H727 | 0.391
NCI-H1650 | 1.19
EBC-1 | 0.41
NCI-H1703 | 1.17
NCI-H1993 | 0.78
SW 1573 | 1.02
NCI-H838 | 1.08
NCI-H520 | 1.07
NCI-H2126 | 0.795
EMC-BAC-2 | 1.1
NCI-H2085 | 1.04
Calu-6 | 0.682
HCC-366 | 0.522
NCI-H1666 | 0.877
NCI-H596 | 0.741
LK-2 | 1.2
NCI-H2087 | 0.715
SK-MES-1 | 1.25
H3255 | 0.485
IA-LM | 0.692
HCC-44 | 0.972
A549 | 1.19
NCI-H1299 | 1.02
NCI-H1792 | 0.551

same assay, conditions: first compound 1.265 µM

Cell Line | relative viability
NCI-H727 | 0.231
NCI-H1650 | 1.18
EBC-1 | 0.424
NCI-H1703 | 0.958
SW 1573 | 0.303
NCI-H838 | 1.12
NCI-H520 | 0.762
NCI-H2126 | 0.704
EMC-BAC-2 | 1.09
NCI-H2085 | 0.815
Calu-6 | 0.687
HCC-366 | 0.0806
NCI-H1666 | 0.726
NCI-H596 | 0.465
LK-2 | 0.953
NCI-H2087 | 0.467
SK-MES-1 | 0.917
H3255 | 0.362
IA-LM | 0.341
HCC-44 | 0.756
A549 | 0.598
NCI-H1299 | 0.942
NCI-H1792 | 0.355

same assay, conditions: first compound 4 µM

Cell Line | relative viability
NCI-H727 | 0.226
NCI-H1650 | 0.722
EBC-1 | 0.341
NCI-H1703 | 0.951
NCI-H1993 | 0.875
SW 1573 | 0.105
NCI-H838 | 1.32
NCI-H520 | 0.924
NCI-H2126 | 0.825
EMC-BAC-2 | 0.745
NCI-H2085 | 0.685
Calu-6 | 0.493
HCC-366 | 0.0474
NCI-H1666 | 0.83
NCI-H596 | 0.34
LK-2 | 0.746
NCI-H2087 | 0.64
SK-MES-1 | 0.551
H3255 | 0.404
IA-LM | 0.239
HCC-44 | 0.741
A549 | 0.208
NCI-H1299 | 0.835
NCI-H1792 | 0.476
